Reference: US20210198277A1, “AMINE-SUBSTITUTED ARYL OR HETEROARYL COMPOUNDS” (Epizyme, Inc., priority 2016, published 2021)

Experiments:
[1] = molecular target: T1, EHMT1 (Homo sapiens, UniProt Q9H9B1); experiment: EHMT1 enzyme assay on peptide substrate (EHMT1 PEP); type: biochemical; details: Table III; read-out: EHMT1 PEP (IC50 μM)
T1 sequence (Q9H9B1 1-1298): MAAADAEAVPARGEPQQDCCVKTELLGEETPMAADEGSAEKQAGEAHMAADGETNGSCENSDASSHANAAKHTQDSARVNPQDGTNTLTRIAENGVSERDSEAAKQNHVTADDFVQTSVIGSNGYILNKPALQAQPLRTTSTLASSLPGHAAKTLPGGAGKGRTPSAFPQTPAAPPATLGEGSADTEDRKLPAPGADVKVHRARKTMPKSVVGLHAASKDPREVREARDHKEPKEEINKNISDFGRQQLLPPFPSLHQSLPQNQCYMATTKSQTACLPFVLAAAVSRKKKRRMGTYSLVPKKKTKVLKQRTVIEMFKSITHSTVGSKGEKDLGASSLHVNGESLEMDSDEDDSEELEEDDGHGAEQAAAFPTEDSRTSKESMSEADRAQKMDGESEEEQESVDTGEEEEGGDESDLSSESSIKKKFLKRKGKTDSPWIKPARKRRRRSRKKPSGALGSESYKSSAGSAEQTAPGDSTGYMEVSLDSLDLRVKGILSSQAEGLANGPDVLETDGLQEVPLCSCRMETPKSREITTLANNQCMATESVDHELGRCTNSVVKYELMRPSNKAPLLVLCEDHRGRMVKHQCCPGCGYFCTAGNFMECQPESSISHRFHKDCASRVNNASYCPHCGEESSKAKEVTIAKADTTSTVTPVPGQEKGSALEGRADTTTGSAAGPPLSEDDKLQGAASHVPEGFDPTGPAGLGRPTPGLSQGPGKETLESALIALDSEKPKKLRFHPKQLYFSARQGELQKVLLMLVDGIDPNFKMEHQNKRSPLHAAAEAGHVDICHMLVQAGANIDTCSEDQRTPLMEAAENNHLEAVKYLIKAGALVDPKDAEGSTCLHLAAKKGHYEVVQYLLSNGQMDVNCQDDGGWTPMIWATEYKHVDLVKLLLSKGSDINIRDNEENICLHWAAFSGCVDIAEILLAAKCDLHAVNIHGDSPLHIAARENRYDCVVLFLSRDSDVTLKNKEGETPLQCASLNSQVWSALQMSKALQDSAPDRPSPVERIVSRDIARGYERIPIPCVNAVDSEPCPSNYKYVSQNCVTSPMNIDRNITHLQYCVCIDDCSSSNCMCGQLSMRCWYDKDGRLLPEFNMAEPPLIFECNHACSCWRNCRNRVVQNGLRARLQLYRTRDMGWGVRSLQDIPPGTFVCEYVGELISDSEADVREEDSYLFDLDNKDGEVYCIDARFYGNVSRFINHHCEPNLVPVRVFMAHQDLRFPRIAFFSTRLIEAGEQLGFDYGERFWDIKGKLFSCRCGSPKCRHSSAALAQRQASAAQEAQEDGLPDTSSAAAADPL

[2] = molecular target: T2, human EHMT2 913-1193 (Homo sapiens, UniProt Q96KQ7); experiment: EHMT2 enzyme assay on histone peptide substrate (EHMT2 PEP); type: biochemical; details: Table III; read-out: EHMT2 PEP (IC50 μM)
T2 construct: recombinant purified human EHMT2 913-1193, Viva; purchased Viva
T2 sequence (Q96KQ7 913-1193): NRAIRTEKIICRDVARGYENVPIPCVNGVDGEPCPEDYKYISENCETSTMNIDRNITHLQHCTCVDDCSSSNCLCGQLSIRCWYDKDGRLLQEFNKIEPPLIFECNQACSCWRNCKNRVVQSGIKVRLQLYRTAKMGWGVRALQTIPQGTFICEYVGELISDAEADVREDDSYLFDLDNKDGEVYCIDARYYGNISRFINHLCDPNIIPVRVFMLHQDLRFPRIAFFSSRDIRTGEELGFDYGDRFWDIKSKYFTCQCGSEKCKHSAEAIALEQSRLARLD
Procedure, shortened: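 10-pt 3-fold series, 50 μM top final, 2% DMSO; 30 min preinc w/ 0.031 nM enzyme; pH 7.5 Bicine/TCEP buffer; ^3H-SAM + biotin-histone peptide, 60 min RT; SAM quench; streptavidin Flashplate capture, TopCount.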

SMILES | IC50 [1] | IC50 [2]
CNc1cc(OC)nc(Nc2ccc(OC)c(OCCCN3CCCC3)c2)n1 [Compound 261, 6-methoxy-N^2-(4-methoxy-3-(3-(pyrrolidin-1-yl)propoxy)phenyl)-N^4-methylpyrimidine-2,4-diamine] | > 10 µM | > 10 µM
CNc1ccnc(Nc2ccc3c(c2)C(=O)N(CCN2CCCC2)CC3)n1 [Compound 264, 7-((4-(methylamino)pyrimidin-2-yl)amino)-2-(2-(pyrrolidin-1-yl)ethyl)-3,4-dihydroisoquinolin-1(2H)-one] | > 10 µM | > 10 µM
COc1ccc(Nc2cccc3[nH]ccc23)cc1OCCCN1CCCC1 [Compound 265, N-(4-methoxy-3-(3-(pyrrolidin-1-yl)propoxy)phenyl)-1H-indol-4-amine] | > 10 µM | > 10 µM
COc1ccc(Nc2nccc3[nH]ccc23)cc1OCCCN1CCCC1 [Compound 266, N-(4-methoxy-3-(3-(pyrrolidin-1-yl)propoxy)phenyl)-1H-pyrrolo[3,2-c]pyridin-4-amine] | 1 to 10 µM | 1 to 10 µM
CNc1nccc(Nc2ccc(OC)c(OCCCN3CCCC3)c2)n1 [Compound 355] | < 0.1 µM | < 0.1 µM
CNc1cc(C)nc(Nc2ccc(F)c(OCCCN3CCCC3)c2)n1 [Compound 356] | > 10 µM | > 10 µM
CNc1nc(Nc2ccc(OC)c(OCCCN3CCCC3)c2)ncc1C#N [Compound 357] | > 10 µM | > 10 µM
CNc1nc(Nc2ccc(OC)c(OCCCN3CCCC3)c2)ncc1C(F)(F)F [Compound 358] | > 10 µM | > 10 µM
CNc1ncc(C(F)(F)F)c(Nc2ccc(OC)c(OCCCN3CCCC3)c2)n1 [Compound 359] | > 10 µM | > 10 µM
CNc1nc(Nc2ccc(OC)c(OCCCN3CCCC3)c2)nc(C)c1F [Compound 360] | 0.1 to 1 µM | 0.1 to 1 µM
CNc1ccnc(Nc2ccc(OC)c(OCCN3CCOCC3)c2)n1 [Compound 361] | 1 to 10 µM | 1 to 10 µM
CNc1cc(C(F)(F)F)nc(Nc2ccc(OC)c(OCCCN3CCCC3)c2)n1 [Compound 362] | > 10 µM | > 10 µM
CNc1ccnc(Nc2ccc3c(c2)N(C(=O)CCN(C)C)CC3)n1 [Compound 363] | > 10 µM | > 10 µM
CCc1cc(NC)nc(Nc2ccc(OC)c(OCCCN3CCCC3)c2)n1 [Compound 364] | < 0.1 µM | < 0.1 µM
COc1ccc(Nc2nccc(CNC3CCOCC3)n2)cc1OCCCNc1ccccc1 [Compound 365] | > 10 µM | > 10 µM
COc1ccc(Nc2cnnc(NCC3CCN(C(C)=O)CC3)c2)cc1OCCCN1CCCC1 [Compound 366] | 1 to 10 µM | 1 to 10 µM
COc1ccc(Nc2nccc(NCC3CCOCC3)n2)cc1OC1CC2(C1)CN(C)C2 [Compound 367] | > 10 µM | > 10 µM
CNc1ccnc(Nc2ccc(F)c(OCCCN3CCCC3)c2)n1 [Compound 368] | > 10 µM | > 10 µM
COc1ccc(Nc2nccc(N)n2)cc1OCCCN1CCCC1 [Compound 369] | 0.1 to 1 µM | 0.1 to 1 µM
CNc1cnnc(Nc2ccc(OC)c(OCCCN3CCCC3)c2)c1 [Compound 370] | 0.1 to 1 µM | 0.1 to 1 µM
CNc1cncc(Nc2ccc(OC)c(OCCCN3CCCC3)c2)n1 [Compound 371] | 1 to 10 µM | 1 to 10 µM
CNc1cc(Nc2cc(OCCCN3CCCC3)c(OC)cn2)ccn1 [Compound 372] | < 0.1 µM | < 0.1 µM
COc1ccc(Nc2nccc3[nH]ncc23)cc1OCCCN1CCCC1 [Compound 373] | > 10 µM | > 10 µM
COc1ccc(Nc2ccnc3[nH]ccc23)cc1OCCCN1CCCC1 [Compound 374] | 1 to 10 µM | 1 to 10 µM
CC(C)Nc1ccnc(Nc2cccc(OCCCN3CC[C@@H](F)C3)c2)n1 [Compound 375] | > 10 µM | > 10 µM

SMILES | IC50 [1] | IC50 [2]
COc1ccc(Nc2nccc(NC(C)C3CCOCC3)n2)cc1OCCCN1CCCC1 (centres unmarked) [Compound 378] | 0.1 to 1 µM | 0.1 to 1 µM
CNc1ccnc(Nc2ccc(OC)c(OCCCN3CCCC3)c2)c1 [Compound 379] | 1 to 10 µM | 0.1 to 1 µM
CNc1ccnc(Nc2ccc3ccn(CCN4CCCC4)c(=O)c3c2)n1 [Compound 381] | > 10 µM | 1 to 10 µM
CNc1ccnc(Nc2ccc(OC)c(COCCN3CCCC3)c2)n1 [Compound 382] | 0.1 to 1 µM | 0.1 to 1 µM
CNc1ccnc(Nc2cccc(COCCN3CCCC3)c2)n1 [Compound 383] | 1 to 10 µM | 1 to 10 µM
CNc1cc(C#N)nc(Nc2ccc(OC)c(OCCCN3CCCC3)c2)n1 [Compound 384] | > 10 µM | > 10 µM
CCc1cc(NC)nc(Nc2ccc(OC)c(OCCCN3CC[C@@H](F)C3)c2)n1 [Compound 385] | 0.1 to 1 µM | 0.1 to 1 µM
CNc1ccnc(Nc2ccc3cnn(CCN(C)C)c3c2)n1 [Compound 386] | > 10 µM | > 10 µM
CNc1ccnc(Nc2ccc(OC)c(OCCCN(C)C)c2)n1 [Compound 387] | < 0.1 µM | 0.1 to 1 µM
CNc1ccnc(Nc2ccc3cnn(CCCN(C)C)c3c2)n1 [Compound 388, N^2-(1-(3-(dimethylamino)propyl)-1H-indazol-6-yl)-N^4-methylpyrimidine-2,4-diamine] | > 10 µM | > 10 µM
CNc1ccnc(Nc2ccc3c(C)nn(CCCN(C)C)c3c2)n1 [Compound 389] | > 10 µM | > 10 µM
CNc1ccnc(Nc2ccc(OC)c(OCCCN3CCCCC3)c2)n1 [Compound 390] | 0.1 to 1 µM | 0.1 to 1 µM
CNc1cc(C)nc(Nc2cccc(OCCCN3CCCC3)c2)n1 [Compound 391] | 0.1 to 1 µM | 0.1 to 1 µM
COc1ccc(Nc2nccc(NCC(F)(F)F)n2)cc1OCCCN1CCCC1 [Compound 392] | 0.1 to 1 µM | 0.1 to 1 µM
CNc1ccnc(Nc2ccc(OC)c(OCC3CCN(C)C3)c2)n1 (centres unmarked) [Compound 393] | < 0.1 µM | 0.1 to 1 µM
CCNC(=O)c1cccc(Nc2nccc(NC)n2)c1 [Compound 394] | > 10 µM | > 10 µM
CCNC(=O)c1cc(Nc2nccc(NC)n2)ccc1OC [Compound 395] | > 10 µM | > 10 µM
CCNC(=O)c1cc(Nc2nccc(NC)n2)ccc1Cl [Compound 396] | 1 to 10 µM | > 10 µM
CNc1ccnc(Nc2cccc(N3CCC(N(C)C)C3)c2)n1 (centres unmarked) [Compound 397] | > 10 µM | > 10 µM
CNc1ccnc(Nc2ccc(Cl)c(OCCCN3CCCC3)c2)n1 [Compound 398] | 0.1 to 1 µM | 0.1 to 1 µM
CNc1ccnc(Nc2cccc(N3CCC(N)C3)c2)n1 (centres unmarked) [Compound 400] | > 10 µM | 1 to 10 µM
COc1ccc(Nc2ccc3cn(C)nc3n2)cc1OCCCN1CCCC1 [Compound 402] | > 10 µM | > 10 µM
CNc1ccnc(Nc2ccc3cn(CCN(C)C)nc3c2)n1 [Compound 404, N^2-(2-(2-(dimethylamino)ethyl)-2H-indazol-6-yl)-N^4-methylpyrimidine-2,4-diamine] | > 10 µM | > 10 µM
CNc1ccnc(Nc2ccc3cn(CCCN(C)C)nc3c2)n1 [Compound 405] | > 10 µM | > 10 µM
